14 compounds from US20230278958A1 (Merck Patent GmbH, priority 2020, published 2023) can be followed below.

This experiment relates to YAP-TEAD interaction. Put plainly: SK-HEP-1 reporter assay (8x TEAD responsive elements driving NanoLuc luciferase). Format: cell-based. The note with it: Homo sapiens, SK-HEP1; SK-HEP-1 TEAD-NanoLuc reporter cells, 24 hour incubation, luciferase readout. The protocol: To identify inhibitors of YAP-TEAD interaction, 8× TEAD responsive elements driving the NanoLuc® luciferase gene were stably integrated into SK-HEP-1 cells (ECACC #: 91091816).
For the assay, cells were treated in duplicates with the test compounds in a 10-point dose, with the top concentration starting at 30 μM (final concentration in assay). After a 24 hour incubation at 37° C., 95% rH, and 5% CO2, a luciferase substrate/lysis reagent mix (NanoGlo™, Promega) was added to the cells, allowing the quantification of cellular luciferase activity.
Cell Media: The cells were cultured in the following media: MEM, +10% FBS, +1× GlutaMAX, +1 mM Sodium-Pyruvate, +100 μM Non-essential amino acids, +0.1 mg/ml Hygromycin. The media used for the assay was: MEM (w/o Phenol Red), +10% FBS, +1× GlutaMAX, +1 mM Sodium-Pyruvate, +100 μM Non-essential amino acids, +0.5% Pen/Strep
Reagents: The reagents used are listed below:
Cell culture: The cells were examined using an inverted microscope to check for health and cell density. To dissociate adherent cells, the monolayer of cells was washed once with pre-warmed PBS. After removing the PBS, 3 ml pre-warmed Accutase® was added to a F75 flask, dispersed evenly and the flask was allowed to sit in incubator for ˜4-5 minutes.
When a single cell suspension was obtained, 7 ml of prewarmed growth media was added and resuspended with the cells. The cell suspension was transferred to a sterile 15 ml conical centrifuge tube, and spun for 5 min at 300×g, RT. The supernatant was discarded and the pellet was resuspended in 10 ml of pre-warmed growth media.
The total cell count was determined, and 20 μl of the desired cell number was added to each well of a 384 well plate using a Multidrop Combi. The plates were then incubated for 24 hours at 37° C., 95% rH, and 5% CO2.
Compound treatment: 24 hours after seeding, the cells were treated with compounds.
A 1:333 dilution of compounds, diluted in DMSO, was made to get a final concentration of 0.3% DMSO per well. To transfer the compounds to the assay plate, 120 nl was shot from Labcyte low dead volume plates to the cell plates containing 20 μl media/well with the ECHO 555 liquid handling system.
After treatment, the cells were fed with 20 μl fresh pre-warmed assay media using a Multidrop combi.
The assay plates were then incubated for another 24 h at 37° C., 95% rH, and 5% CO2.
Luciferase readout: 24 h after treatment, the plates were taken out of the incubator and were allowed to equilibrate to RT. 30 μl of NanoGlo® reagent was added to the plates in the dark. Plates were shaken for 20 min on a Teleshake (˜1500 rpm) in the dark. The luminescence was then measured using an EnVision microplate reader. The IC50 values were generated using Genedata Screener®.
Experimental data in SK-HEP-1 reporter assay of the compounds shown in Table 1 are shown in Table 2 below and classified in the following groups: […]
In general terms: In a reporter assay the amount or activity of a reporter protein is the signal.
On to `Cc1ccc2c(c1)c1cc(C(=O)NC[C@@H](O)CO)ccc1n2-c1ccc(C(F)(F)F)cc1` (single isomer, unassigned) [Compound 68, N-[(2R or 2S)-2,3-dihydroxypropyl]-6-methyl-9-[4-(trifluoromethyl)phenyl]-9H-carbazole-3-carboxamide], for which the half-maximal inhibitory concentration (IC50) was 10 to 100 nM.
The figure for `Cc1ccc2c(c1)c1cc(C(=O)NC[C@H](O)CO)ccc1n2-c1ccc(C(F)(F)F)cc1` (single isomer, unassigned) [Compound 69, N-[(2S or 2R)-2,3-dihydroxypropyl]-6-methyl-9-[4-(trifluoromethyl)phenyl]-9H-carbazole-3-carboxamide] is 100 to 1000 nM.
In the case of `O=C(O)c1cc2c3ccccc3n(Cc3ccc(C(F)(F)F)cc3)c2cn1` [Compound 32, 9-{[4-(trifluoromethyl)phenyl]methyl}-9H-pyrido[3,4-b]indole-3-carboxylic acid] it was more than 1000 nM; in that of `Cc1ccc2c(c1)c1cc(C(=O)NCC(O)C(F)(F)F)ccc1n2-c1ccc(C(F)(F)F)cc1` (centres unmarked) [Compound 60, 6-methyl-N-(3,3,3-trifluoro-2-hydroxypropyl)-9-[4-(trifluoromethyl)phenyl]-9H-carbazole-3-carboxamide], 100 to 1000 nM; in that of `Cc1ccc2c(c1)c1cc(C(=O)NCc3ccccn3)ccc1n2-c1ccc(OC(F)(F)F)cc1` [Compound 64, 6-methyl-N-[(pyridin-2-yl)methyl]-9-[4-(trifluoromethoxy)phenyl]-9H-carbazole-3-carboxamide], more than 1000 nM.
Consider `Cc1ccc2c(c1)c1cc(C(=O)NCc3ncccn3)ccc1n2-c1ccc(OC(F)(F)F)cc1` [Compound 65, 6-methyl-N-[(pyrimidin-2-yl)methyl]-9-[4-(trifluoromethoxy)phenyl]-9H-carbazole-3-carboxamide], for which the IC50 was more than 1000 nM.
Regarding `Cc1ccc2c(c1)c1cc(C(=O)NCc3cnccn3)ccc1n2-c1ccc(OC(F)(F)F)cc1` [Compound 66, 6-methyl-N-[(pyrazin-2-yl)methyl]-9-[4-(trifluoromethoxy)phenyl]-9H-carbazole-3-carboxamide], the IC50 is more than 1000 nM.
For `Cc1ccc2c(n1)c1cc(C(N)=O)ccc1n2-c1ccc(C(F)(F)F)cc1` [Compound 67, 2-methyl-5-[4-(trifluoromethyl)phenyl]-5H-pyrido[3,2-b]indole-8-carboxamide], the IC50 lay within 10 to 100 nM.
In turn, `Cc1cc2c3cc(C(=O)NC4CC4)ccc3n(-c3ccc(C(F)(F)F)cc3)c2cc1C` [Compound 70, N-cyclopropyl-6,7-dimethyl-9-[4-(trifluoromethyl)phenyl]-9H-carbazole-3-carboxamide] came in with an IC50 of 10 to 100 nM.
On to `Cc1ccc2c(c1)c1cc(C(=O)N[C@H](C)CO)ccc1n2-c1ccc(C(F)(F)F)cc1` [Compound 71, N-[(2R)-1-hydroxypropan-2-yl]-6-methyl-9-[4-(trifluoromethyl)phenyl]-9H-carbazole-3-carboxamide], for which the IC50 fell in the range of 100 to 1000 nM.
`Cc1ccc2c(c1)c1cc(C(=O)N[C@@H](C)CO)ccc1n2-c1ccc(C(F)(F)F)cc1` [Compound 72, N-[(2S)-1-hydroxypropan-2-yl]-6-methyl-9-[4-(trifluoromethyl)phenyl]-9H-carbazole-3-carboxamide]: the 50% inhibitory concentration (IC50) fell in the range of 100 to 1000 nM.
In the case of `Cc1ccc2c(c1)c1cc(C(=O)NCc3ccncn3)ccc1n2-c1ccc(OC(F)(F)F)cc1` [Compound 73, 6-methyl-N-[(pyrimidin-4-yl)methyl]-9-[4-(trifluoromethoxy)phenyl]-9H-carbazole-3-carboxamide] it was more than 1000 nM; in that of `CNC(=O)c1ccc2c(c1)c1cc(C)c(C)cc1n2-c1ccc(C(F)(F)F)cc1` [Compound 74, N,6,7-trimethyl-9-[4-(trifluoromethyl)phenyl]-9H-carbazole-3-carboxamide], 1 to 10 nM; in that of `Cc1cc2c3cc(C(=O)NCCO)ccc3n(-c3ccc(C(F)(F)F)cc3)c2cc1C` [Compound 75, N-(2-hydroxyethyl)-6,7-dimethyl-9-[4-(trifluoromethyl)phenyl]-9H-carbazole-3-carboxamide], 10 to 100 nM.

Broadly, the IC50 is the concentration that inhibits the measured activity by half. A high value points to weaker potency.
